# Source: ChEMBL document CHEMBL5321272 (J Med Chem, 2023)
# Activity calls are given as the source filed them. No cut-off for these calls is given here.
# Tests used:
# [1] = Acute toxicity in ICR mouse assessed as morphological changes in spleen at 300 mg/kg, ig and measured for 7 days by Hematoxylin-Eosin staining based analysis; type: organism-based; details: in vivo, po, 168 h, time 7 day
# [2] = biological target: T1, Serine/threonine-protein kinase Chk1 (Homo sapiens) (UniProt O14757); assay: Inhibition of CHK1 in human MV4-11 cells assessed as downregulation of c-Myc protein expression at 50 to 200 nM measured after 90 mins by western blot analysis; type: cell-based; details: dose 50-200 nM
# T1 sequence (whole entry): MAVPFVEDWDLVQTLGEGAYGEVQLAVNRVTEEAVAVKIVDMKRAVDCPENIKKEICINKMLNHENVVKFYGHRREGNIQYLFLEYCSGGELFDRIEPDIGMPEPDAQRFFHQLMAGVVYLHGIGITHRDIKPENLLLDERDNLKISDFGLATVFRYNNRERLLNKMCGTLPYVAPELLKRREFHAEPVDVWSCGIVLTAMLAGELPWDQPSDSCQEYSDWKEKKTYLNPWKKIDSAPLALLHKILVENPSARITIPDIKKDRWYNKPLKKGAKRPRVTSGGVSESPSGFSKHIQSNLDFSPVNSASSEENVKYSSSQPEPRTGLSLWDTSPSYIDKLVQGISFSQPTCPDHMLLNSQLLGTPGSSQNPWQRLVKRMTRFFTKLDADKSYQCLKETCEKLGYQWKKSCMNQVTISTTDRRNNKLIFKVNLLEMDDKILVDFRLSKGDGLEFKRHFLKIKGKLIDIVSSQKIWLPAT
# [3] = biological target: Mitogen-activated protein kinase kinase kinase 7 (Homo sapiens, UniProt O43318); assay: Inhibition of TAK1 (unknown origin) by HTRF assay
# Chain of Mitogen-activated protein kinase kinase kinase 7 (O43318 whole entry): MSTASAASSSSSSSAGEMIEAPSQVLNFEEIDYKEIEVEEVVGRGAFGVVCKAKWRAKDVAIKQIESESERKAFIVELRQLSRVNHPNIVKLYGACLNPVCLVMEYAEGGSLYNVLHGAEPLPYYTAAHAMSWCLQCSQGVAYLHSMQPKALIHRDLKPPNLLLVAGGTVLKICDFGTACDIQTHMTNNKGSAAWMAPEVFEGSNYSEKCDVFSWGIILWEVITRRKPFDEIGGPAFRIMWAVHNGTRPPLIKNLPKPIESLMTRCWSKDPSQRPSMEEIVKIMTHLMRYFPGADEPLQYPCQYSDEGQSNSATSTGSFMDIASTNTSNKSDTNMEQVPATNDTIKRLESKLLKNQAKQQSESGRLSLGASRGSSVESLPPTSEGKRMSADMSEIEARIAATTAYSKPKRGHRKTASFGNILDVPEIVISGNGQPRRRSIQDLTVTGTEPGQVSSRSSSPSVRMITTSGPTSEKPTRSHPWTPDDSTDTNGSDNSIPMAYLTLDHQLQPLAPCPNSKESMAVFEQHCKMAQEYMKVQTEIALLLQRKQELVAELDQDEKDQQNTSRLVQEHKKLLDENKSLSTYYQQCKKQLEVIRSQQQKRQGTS
# [4] = biological target: Receptor-type tyrosine-protein kinase FLT3 (Homo sapiens, UniProt P36888); assay: Inhibition of wild type FLT3 (unknown origin) using peptide substrate TK-S and ATP as substrate incubated for 1 hr by HTRF assay
# Chain of Receptor-type tyrosine-protein kinase FLT3 (P36888 whole entry): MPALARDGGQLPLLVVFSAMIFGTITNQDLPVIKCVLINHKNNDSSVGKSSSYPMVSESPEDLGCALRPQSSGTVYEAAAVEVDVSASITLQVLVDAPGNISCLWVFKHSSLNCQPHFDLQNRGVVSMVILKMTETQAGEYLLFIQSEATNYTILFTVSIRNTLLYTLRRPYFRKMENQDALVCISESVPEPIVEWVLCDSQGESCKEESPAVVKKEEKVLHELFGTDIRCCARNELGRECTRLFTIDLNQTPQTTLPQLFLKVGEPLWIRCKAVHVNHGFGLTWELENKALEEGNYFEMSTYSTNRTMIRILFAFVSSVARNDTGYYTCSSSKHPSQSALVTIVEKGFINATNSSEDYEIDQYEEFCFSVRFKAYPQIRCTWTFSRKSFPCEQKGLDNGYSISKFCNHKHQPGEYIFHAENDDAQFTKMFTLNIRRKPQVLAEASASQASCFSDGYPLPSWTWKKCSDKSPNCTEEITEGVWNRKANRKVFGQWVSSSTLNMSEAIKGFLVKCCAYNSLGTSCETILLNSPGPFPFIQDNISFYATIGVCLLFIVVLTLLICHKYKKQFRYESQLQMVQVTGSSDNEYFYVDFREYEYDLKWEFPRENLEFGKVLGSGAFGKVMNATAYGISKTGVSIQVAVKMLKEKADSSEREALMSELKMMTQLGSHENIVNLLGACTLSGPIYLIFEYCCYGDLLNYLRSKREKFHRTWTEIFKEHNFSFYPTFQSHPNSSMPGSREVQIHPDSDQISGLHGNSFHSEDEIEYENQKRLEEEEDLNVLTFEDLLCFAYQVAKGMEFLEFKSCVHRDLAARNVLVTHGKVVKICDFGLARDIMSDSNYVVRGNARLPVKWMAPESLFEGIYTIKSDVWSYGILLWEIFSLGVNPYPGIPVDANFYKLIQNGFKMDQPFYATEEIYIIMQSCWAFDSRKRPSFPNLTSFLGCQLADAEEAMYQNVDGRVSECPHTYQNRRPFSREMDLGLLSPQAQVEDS
# [5] = test system: BaF3; assay: Antiproliferative activity against mouse BaF3 cells harboring FLT3 F691L mutant assessed as reduction in cell viability incubated for 72 hrs by CellTiter 96 Aqueous One Solution Cell Proliferation Assay; type: functional, cell-based
structure (smiles),measurement,setting,value
CC(C)(O)CC(=O)N1CCc2cc(Nc3ncc(C(F)(F)F)c(N[C@H]4CC[C@@H](N)CC4)n3)ccc2C1,Activity,[1],Non-Toxic
same,inhibition,[2],Active
same,IC50,[3],64.3 nM
same,IC50,[4],< 10 nM
same,Activity,[5],Active
